Reference: ChEMBL document CHEMBL5649166, “RIP3 induces apoptosis independent of pronecrotic kinase activity” (Mol Cell, 2014)
Activity calls are given as the source filed them. The calls are words filed in the database; no cut-off is given here.

What was measured:
[1] = molecular target: Tyrosine-protein kinase SYK (Homo sapiens) (UniProt P43405); test: Inhibition of human SYK using poly[Glu:Tyr] (4:1) as substrate at 1 uM in presence of 32P-ATP by Hotspot assay relative to control; values are per cent of control
[2] = molecular target: Glycogen synthase kinase-3 beta (Homo sapiens) (UniProt P49841); test: Inhibition of human GSK3b using YRRAAVPPSPSLSRHSSPHQ(pS)EDEEE as substrate at 1 uM in presence of 32P-ATP by Hotspot assay relative to control; values are per cent of control
[3] = tested on: BMDM; test: Inhibition of TNF-alpha induced necroptosis in mouse BMDM cells assessed as increase in cell viability at 0.04 to 1 uM incubated for 18 hrs in presence of zVAD and BV6 by Cell Titer-Glo luminescent cell viability assay; type: functional, cell-based; conditions: dose 0.04-1 µM
[4] = molecular target: T1, Mitogen-activated protein kinase 13 (Homo sapiens) (UniProt O15264); test: Inhibition of human P38d/MAPK13 using myelin basic protein as substrate at 1 uM in presence of 32P-ATP by Hotspot assay relative to control; values are per cent of control
T1 sequence (whole entry): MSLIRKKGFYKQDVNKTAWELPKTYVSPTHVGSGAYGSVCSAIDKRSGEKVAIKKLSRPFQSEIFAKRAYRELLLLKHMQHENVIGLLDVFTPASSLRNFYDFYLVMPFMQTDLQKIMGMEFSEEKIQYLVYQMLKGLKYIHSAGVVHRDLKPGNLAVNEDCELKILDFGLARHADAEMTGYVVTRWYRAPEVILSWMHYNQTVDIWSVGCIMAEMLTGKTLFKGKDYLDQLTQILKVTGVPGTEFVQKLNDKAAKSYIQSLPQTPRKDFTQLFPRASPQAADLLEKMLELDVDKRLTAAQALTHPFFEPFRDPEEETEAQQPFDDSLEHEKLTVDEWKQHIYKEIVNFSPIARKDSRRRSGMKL

[5] = molecular target: T2, Activin receptor type-1B (Homo sapiens) (UniProt P36896); test: Residual activity of human ALK4/ACVR1B using casein as substrate at 1 uM in presence of 32P-ATP by Hotspot assay relative to control
T2 sequence (whole entry): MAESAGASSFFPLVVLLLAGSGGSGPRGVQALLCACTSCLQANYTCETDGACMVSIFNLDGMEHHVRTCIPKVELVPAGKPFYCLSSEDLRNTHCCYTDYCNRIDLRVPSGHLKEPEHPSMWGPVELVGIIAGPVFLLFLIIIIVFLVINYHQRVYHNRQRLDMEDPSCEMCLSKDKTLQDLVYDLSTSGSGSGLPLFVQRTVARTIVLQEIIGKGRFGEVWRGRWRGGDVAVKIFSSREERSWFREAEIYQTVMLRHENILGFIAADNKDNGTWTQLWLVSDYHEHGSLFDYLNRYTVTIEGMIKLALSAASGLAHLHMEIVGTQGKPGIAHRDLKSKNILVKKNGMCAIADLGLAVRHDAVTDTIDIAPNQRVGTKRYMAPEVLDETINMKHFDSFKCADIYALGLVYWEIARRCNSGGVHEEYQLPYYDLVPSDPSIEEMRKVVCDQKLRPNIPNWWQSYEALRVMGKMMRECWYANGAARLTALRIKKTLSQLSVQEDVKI

[6] = molecular target: T3, Lymphokine-activated killer T-cell-originated protein kinase (Homo sapiens) (UniProt Q96KB5); test: Inhibition of human PBK/TOPK using myelin basic protein as substrate at 1 uM in presence of 32P-ATP by Hotspot assay relative to control; values are per cent of control
T3 sequence (whole entry): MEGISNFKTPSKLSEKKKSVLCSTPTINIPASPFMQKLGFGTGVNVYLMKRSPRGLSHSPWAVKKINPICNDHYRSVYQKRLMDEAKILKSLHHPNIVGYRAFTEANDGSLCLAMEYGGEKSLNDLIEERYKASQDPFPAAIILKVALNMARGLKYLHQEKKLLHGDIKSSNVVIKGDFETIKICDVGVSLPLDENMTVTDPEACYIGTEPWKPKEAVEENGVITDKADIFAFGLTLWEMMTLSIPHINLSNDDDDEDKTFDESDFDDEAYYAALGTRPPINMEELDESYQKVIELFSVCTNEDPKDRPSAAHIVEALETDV

[7] = molecular target: T4, Serine/threonine-protein kinase TAO1 (Homo sapiens) (UniProt Q7L7X3); test: Inhibition of human TAOK1 using myelin basic protein as substrate at 1 uM in presence of 32P-ATP by Hotspot assay relative to control; values are per cent of control
T4 sequence (whole entry): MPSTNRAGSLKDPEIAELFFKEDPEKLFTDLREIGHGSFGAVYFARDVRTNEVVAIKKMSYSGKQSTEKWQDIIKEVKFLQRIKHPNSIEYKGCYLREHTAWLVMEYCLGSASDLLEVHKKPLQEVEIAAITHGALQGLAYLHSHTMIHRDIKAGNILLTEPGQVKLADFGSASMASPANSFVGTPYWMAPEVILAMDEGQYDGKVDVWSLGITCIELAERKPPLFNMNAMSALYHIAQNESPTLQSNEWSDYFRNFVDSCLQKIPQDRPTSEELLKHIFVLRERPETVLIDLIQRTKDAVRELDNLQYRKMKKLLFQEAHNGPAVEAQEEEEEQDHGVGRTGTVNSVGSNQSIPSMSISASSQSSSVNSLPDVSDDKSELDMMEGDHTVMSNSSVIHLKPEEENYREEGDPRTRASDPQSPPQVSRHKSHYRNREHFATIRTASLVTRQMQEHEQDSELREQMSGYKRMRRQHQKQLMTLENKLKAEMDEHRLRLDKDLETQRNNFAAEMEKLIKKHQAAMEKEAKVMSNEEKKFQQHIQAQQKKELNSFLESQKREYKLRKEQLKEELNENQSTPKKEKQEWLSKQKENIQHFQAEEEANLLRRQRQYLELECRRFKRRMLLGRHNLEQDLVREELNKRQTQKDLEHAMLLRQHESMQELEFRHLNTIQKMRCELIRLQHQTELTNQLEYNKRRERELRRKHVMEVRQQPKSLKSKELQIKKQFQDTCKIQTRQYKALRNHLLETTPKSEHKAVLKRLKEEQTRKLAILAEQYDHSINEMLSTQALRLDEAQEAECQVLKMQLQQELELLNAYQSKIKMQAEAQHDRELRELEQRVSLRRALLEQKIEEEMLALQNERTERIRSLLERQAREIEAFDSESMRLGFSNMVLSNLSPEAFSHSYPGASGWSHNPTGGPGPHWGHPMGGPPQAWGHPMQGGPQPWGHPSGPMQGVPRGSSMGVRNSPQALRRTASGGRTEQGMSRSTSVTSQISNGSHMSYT

Chain of Glycogen synthase kinase-3 beta (Homo sapiens) (P49841 whole entry, looked up): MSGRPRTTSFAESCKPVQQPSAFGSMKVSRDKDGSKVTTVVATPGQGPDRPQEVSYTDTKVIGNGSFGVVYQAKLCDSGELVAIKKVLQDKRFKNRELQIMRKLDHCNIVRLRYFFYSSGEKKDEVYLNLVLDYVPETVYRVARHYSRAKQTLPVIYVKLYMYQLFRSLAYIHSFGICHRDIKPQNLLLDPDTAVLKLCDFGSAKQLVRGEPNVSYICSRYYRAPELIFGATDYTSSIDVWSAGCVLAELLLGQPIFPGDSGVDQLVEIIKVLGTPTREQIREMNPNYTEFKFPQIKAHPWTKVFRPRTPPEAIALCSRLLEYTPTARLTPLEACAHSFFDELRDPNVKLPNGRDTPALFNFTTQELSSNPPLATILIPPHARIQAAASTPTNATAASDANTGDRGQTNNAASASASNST

Compound | residual activity [1] [%] | residual activity [2] [%] | inhibition [3] | residual activity [4] [%] | residual activity [5] [%] | residual activity [6] [%] | residual activity [7] [%]
Cc1cc(-c2cnc(N)c3c(-c4ccc5scnc5c4)csc23)n(C)n1 | 92.8 | 93.2 | Active | 103 | 96.8 | 100 | 92.6
CNC(=O)c1ccc2c(c1)ncn2-c1ccc(CC(=O)OC(C)(C)C)cc1 | 87.5 | 65.2 | inactive | 104 | 93.9 | 102 | 98.8
CC(C)S(=O)(=O)c1ccc2nccc(Nc3ccc4scnc4c3)c2c1 | 93.3 | 83.8 | Active | 94.8 | 100 | 105 | 93.8
